In patent publication US8158558B2, “Herbicide combinations comprising specific sulfonylureas” (Bayer CropScience GmbH, priority 2001, dated 2012):
Like-named read-outs stand apart in the source and are kept apart here.

Tests used:
Assay type in all cases: in vivo
Wheat = test system: Wheat
Procedure: (§1) Herbicidal Action (Outdoor Trials)
(§2) The seeds or rhizome pieces of typical harmful plants were planted and grown under natural outdoor conditions. After the harmful plants had emerged, they were treated, as a rule at the 2- to 4-leaf stage, with various dosages of the compositions according to the invention at a water application rate of 100 to 400 I/ha (converted).
(§3) After the treatment (approx. 4-6 weeks after application), the herbidical activity of the active compounds or active compound mixtures was scored visually by comparing the treated plots with the untreated control plots. Damage and development of all above-ground parts of the plants was recorded. Scoring was done on a percentage scale (100% action=all plants dead; 50% action=50% of the plants and green plant parts dead; 0% action=no discernible action=like control plot). The score figures of in each case 4 plots were averaged.
(§4) The results are listed in the tables below, where the activity measured for the independent use of the active compounds (A) and (B) is stated in brackets and where g of AS/ha denotes grams of active substance per hectare.

Veronica hederifolia = assay: Herbicidal action (outdoor trials), post-emergence, Veronica hederifolia; settings: visual score approx. 4-6 weeks after application, mean of 4 plots
Procedure: as §1, §2, §3, §4

Setaria viridis = assay: Herbicidal action (outdoor trials), post-emergence, Setaria viridis; settings: read-out: Setaria viridis % activity
Procedure: as §1, §2, §3, §4

`CCOC(=O)/C(Cl)=C/c1cc(N2C(=O)C3=C(CCCC3)C2=O)ccc1Cl` [cinidon-ethyl (B7), ethyl (Z)-2-chloro-3-[2-chloro-5-(1,2-cyclohex-1-enedicarboximido)phenyl]acrylate] was tested, and the Wheat % activity (Wheat; 25 g of AS/ha, outdoor, visual score approx. 4-6 weeks after application, mean of 4 plots) was 0%, the Wheat % damage (Wheat; 50 g of AS/ha, outdoor, visual score approx. 4-6 weeks after application, mean of 4 plots) was 5% and the “Veronica hederifolia % damage” value (Veronica hederifolia; 25 g of AS/ha) was 35%. The “Veronica hederifolia % activity” value (Veronica hederifolia; 50 g of AS/ha) was 25%.

`COc1ncc(F)c2nc(S(=O)(=O)Nc3c(F)cccc3F)nn12` [florasulam (B3), 2′,6′,8′-trifluoro-5-methoxy[1,2,4]triazolo[1,5-c]pyrimidine-2-sulfanilide] was tested, and the Wheat % activity (Wheat; 4 g of AS/ha, outdoor, visual score approx. 4-6 weeks after application, mean of 4 plots) was 0% and the “Veronica hederifolia % damage” value (Veronica hederifolia; 4 g of AS/ha) was 60%.

In the case of `COc1nn(C(=O)NS(=O)(=O)c2ccccc2OC(F)(F)F)c(=O)n1C.[Na]` [flucarbazone (B1), 4,5-dihydro-3-methoxy-4-methyl-5-oxo-N-(2-trifluoromethoxyphenylsulfonyl)-1H-1,2,4-triazole-1-carboxamide sodium salt], the Wheat % damage (Wheat; 10 g of AS/ha, outdoor, visual score approx. 4-6 weeks after application, mean of 4 plots) is reported as 5% and the inhibition at 10 g/ha (Setaria viridis) is reported as 40%.

With `O=C(Nc1ccc(F)cc1)c1cccc(Oc2cccc(C(F)(F)F)c2)n1` [picolinafen (B6), 4′-fluoro-6-[(α,α,α-trifluoro-m-tolyl)oxy]picolinanilide] the Wheat % activity (Wheat; in vivo) was 0%, the Wheat % damage (Wheat; in vivo) was 0% and the “Veronica hederifolia % damage” value (Veronica hederifolia; 5 g of AS/ha) was 55%. The inhibition at 30 g/ha (Veronica hederifolia; Veronica hederifolia, 30 g of AS/ha) was 65%.
